Measurements from patent US9226929B2, “Pharmaceutically active disubstituted triazine derivatives” (Bayer Intellectual Property GMBH, priority 2011, dated 2016).

How the values were obtained:
[1] = target: T1, CDK7/CyclinH/MAT1 (Homo sapiens, UniProt P50613); experiment: LanthaScreen Eu Kinase Binding Assay, CDK7; settings: tracer 236, read-out: CDK7 (activity range), Kd
T1 construct: His; purchased Carna Biosciences
Description: (§1) This protocol describes how the LanthaScreen Eu Kinase Binding Assay was performed to determine dissociation constants (Kd) of compounds of general formula (I) and CDK/Cyclin complexes. The principle behind this assay is based upon the binding and displacement of an Alexa Fluor 647-labeled tracer, which binds to the active site of kinases. Binding of the tracer to the kinase is detected using a Eu-labeled antibody. Simultaneous binding of both the tracer and antibody to the kinase gives rise to a FRET-signal. Binding of an inhibitor to the kinase competes for binding with the tracer, resulting in a loss of FRET.
(§2) The compounds of general formula (I) summarized in Table 1 were diluted from a 10 mM DMSO stock solution 1:10 in a total volume of 15 μL DMSO. This compound predilution was then serial diluted 1:3 over 8 steps in DMSO and briefly spun down. Each compound solution was now diluted 1:33.33 in kinase buffer (HEPES: 20 mM, pH: 8.0; MgCl2: 10 mM; DTT: 1 mM; Brij-35: 0,01%), mixed thoroughly and spun down. For every sample, 5 μL of the diluted compound were mixed with 5 μL tracer working solution (e.g. 60 nM tracer 236 in kinase buffer for CDK2/Cyclin A) and 5 μL CDK/Cyclin/Anti-GST-AB-working solution (e.g. 15 nM CDK2/Cyclin A, 1:250 dilution of Anti-GST-AB in kinase buffer) in a well of a small volume 384 well plate (Corning Incorporated, Corning, N.Y., USA; order no. 3673). The tracer concentration was adjusted to its dissociation constant (Kd) for the CDK/Cyclin, which was 30 nM for CDK2/Cyclin A, CDK7/Cyclin H and CDK9/Cyclin T1, 20 nM for CDK8/Cyclin C, and 35 nM for CDK9/Cyclin K. For negative controls, in each well 5 μL of DMSO working solution (3% DMSO diluted in kinase buffer) was mixed with 5 μL Anti-GST-AB working solution (e.g. 1:250 dilution of Anti-GST-AB in kinase buffer for CDK2/Cyclin A) and 5 μL Tracer working solution (e.g. 60 nM Tracer 236 in kinase buffer for CDK2/Cyclin A). For positive controls, in each well 5 μL of DMSO working solution (3% DMSO diluted in kinase buffer) was mixed with 5 μL CDK/Cyclin/Anti-GST-AB-working solution: (e.g. 15 nM CDK2/Cyclin A, 1:250 dilution of Anti-GST-AB in kinase buffer) and 5 μL Tracer working solution (e.g. 60 nM Tracer 236 in kinase buffer for CDK2/Cyclin A). Positive and negative controls were calculated from at least 8 different sample wells. The 384 well plates were mixed in a Teleshaker plate mixer (Beckman Coulter, Brea, Calif., USA) at 2000 rpm for 40 sec, and incubated for 1 h at room temperature before reading. The FRET signal was measured at 340 nm excitation, 665 nm and 615 nm emission (for the kinase tracer and LanthaScreen Eu-AB, respectively) with an Envision spectrophotometer (Perkin Elmer, Waltham, Mass., USA) with […]. Kd values were determined from the sigmoidal dose response curves with the software Quattro Workflow (Quattro GmbH, Munich, Germany).

[2] = target: T2, CDK9/Cyclin K (Homo sapiens, UniProt P50750); experiment: LanthaScreen Eu Kinase Binding Assay, CDK9/Cyclin K; settings: tracer 236, read-out: CDK9/Cyclin K (activity range), Kd
T2 construct: His; purchased Invitrogen
T2 sequence (P50750 whole entry): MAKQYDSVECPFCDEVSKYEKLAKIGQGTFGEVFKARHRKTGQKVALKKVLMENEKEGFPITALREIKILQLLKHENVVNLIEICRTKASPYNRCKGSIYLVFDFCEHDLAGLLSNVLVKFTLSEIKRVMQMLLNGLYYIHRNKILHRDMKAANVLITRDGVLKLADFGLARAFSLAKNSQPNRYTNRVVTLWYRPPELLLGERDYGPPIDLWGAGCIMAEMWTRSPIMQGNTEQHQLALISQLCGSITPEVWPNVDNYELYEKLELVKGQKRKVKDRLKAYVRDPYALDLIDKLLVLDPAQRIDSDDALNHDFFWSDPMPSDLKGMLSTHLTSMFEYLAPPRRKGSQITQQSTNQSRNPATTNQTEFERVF
T2 sequence (O75909 1-357 isoform O75909-1 partner): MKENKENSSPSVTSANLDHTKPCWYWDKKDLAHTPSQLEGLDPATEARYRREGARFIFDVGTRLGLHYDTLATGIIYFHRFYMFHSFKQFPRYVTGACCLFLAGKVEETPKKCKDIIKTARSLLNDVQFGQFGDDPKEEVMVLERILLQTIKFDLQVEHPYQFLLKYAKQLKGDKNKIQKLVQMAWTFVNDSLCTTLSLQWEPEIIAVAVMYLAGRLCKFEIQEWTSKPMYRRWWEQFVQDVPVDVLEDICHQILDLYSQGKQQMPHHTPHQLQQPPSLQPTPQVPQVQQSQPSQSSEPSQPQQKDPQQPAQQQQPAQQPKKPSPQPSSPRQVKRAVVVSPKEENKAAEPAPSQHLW
Description: as §1, §2

[3] = tested on: Hela cells; experiment: Cell Viability Assay, Hela cells; format: cell-based; settings: Homo sapiens, 72 h, Cell Titer Glo, read-out: Cell Viability - Hela cells (activity range), IC50
Description: (§3) 3.4 Cell Viability Assays
(§4) Hela- or MDAMB468-Cells were maintained in RPMI 1640 or McCoy's 5A cell culture medium+glutamine (PAN Biotech GmbH, Aidenbach, Germany; order no. PO4-22100; PO4-05500) supplemented with 10% fetal calf serum “Gold” (PAA Laboratories GmbH, Pasching, Austria; order no. A15-151) and grown at 37° C., 5% CO2. For the cell viability assay, cells were seeded with a density of 400 (Hela cells, DSMZ Braunschweig order no. ACC57) or 800 (MDAMB468 cells, ATCC order no. HTB-132) per well in 25 μL in 384-well plates (Greiner Bio-One, Frickenhausen, Germany; order no. 781080). After overnight incubation at 37° C./5% CO2, 25 nL or 75 nL compound were added to each sample well by using BIOMEK FXP Laboratory Automation Workstation (Beckman Coulter, USA). Wells with cells and 0.1% or 0,3% DMSO in culture medium were used as positive controls, wells with cells and 10 μM staurosporine in culture medium were used as negative controls. The cells were incubated with the compounds for 72 h at 37° C./5% CO2. For measurement of cell viability 25 μL Cell Titer Glo reagent (Promega, Madison, USA; order no. G7573), 1:2 diluted with cell culture medium, was added to each well. The 384we11-plates were placed for 2 min on a orbital microplate shaker and incubated for further 10 min at room temperature to stabilize the luminescence signal.
(§5) Luminescence was measured by Envision Plate Reader (Perkin Elmer, USA). IC50 values were calculated with the software Excel Fit (IDBS, Guildford, UK) from 3-fold dilution series comprising at least 8 concentrations in duplicates.

[4] = target: T3, CDK9/Cyclin T1 (Homo sapiens, UniProt P50750); experiment: LanthaScreen Eu Kinase Binding Assay, CDK9/Cyclin T1; settings: tracer 236, read-out: CDK9/Cyclin T1 (activity range), Kd
T3 construct: His; purchased Invitrogen
T3 sequence (P50750 whole entry): as the sequence (P50750 whole entry) above
T3 sequence (O60563 whole entry partner): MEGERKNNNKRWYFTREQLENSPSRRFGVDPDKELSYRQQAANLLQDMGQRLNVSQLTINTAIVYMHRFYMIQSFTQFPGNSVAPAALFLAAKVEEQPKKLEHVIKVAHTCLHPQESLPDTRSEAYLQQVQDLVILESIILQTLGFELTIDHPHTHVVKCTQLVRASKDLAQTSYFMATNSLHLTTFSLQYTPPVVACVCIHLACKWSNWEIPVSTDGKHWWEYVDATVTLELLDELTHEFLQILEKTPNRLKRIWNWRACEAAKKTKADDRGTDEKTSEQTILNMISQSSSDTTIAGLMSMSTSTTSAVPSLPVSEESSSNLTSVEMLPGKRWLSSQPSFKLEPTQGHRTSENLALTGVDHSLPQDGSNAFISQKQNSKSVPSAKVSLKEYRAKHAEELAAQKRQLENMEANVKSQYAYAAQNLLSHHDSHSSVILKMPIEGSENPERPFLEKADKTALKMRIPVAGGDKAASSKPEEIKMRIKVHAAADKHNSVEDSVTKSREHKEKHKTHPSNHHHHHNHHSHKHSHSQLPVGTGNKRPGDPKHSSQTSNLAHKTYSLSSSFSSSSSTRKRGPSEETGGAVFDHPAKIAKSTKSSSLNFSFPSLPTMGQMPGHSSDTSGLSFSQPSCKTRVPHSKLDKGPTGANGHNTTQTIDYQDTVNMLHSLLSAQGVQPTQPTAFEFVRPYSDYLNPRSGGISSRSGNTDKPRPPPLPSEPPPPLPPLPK
Description: as §1, §2

[5] = tested on: MDAMB468 cells; experiment: Cell Viability Assay, MDAMB468 cells; format: cell-based; settings: Homo sapiens, MDA-MB-468; 72 h, Cell Titer Glo; read-out: Cell Viability - MDAMB468 cells (activity range), IC50
Description: as §3, §4, §5

[6] = target: T4, CDK2/CyclinA (Homo sapiens, UniProt P24941); experiment: LanthaScreen Eu Kinase Binding Assay, CDK2; settings: tracer 236, read-out: CDK2 (activity range), Kd
T4 construct: GST; purchased Proqinase
Description: as §1, §2

[7] = target: T5, CDK9 (Homo sapiens, UniProt P50750); experiment: Lance Ultra KinaSelect Assay, CDK9; format: biochemical; settings: cyclin partner (T1 or K) not stated; read-out: CDK9 LANCE assay (activity range), IC50
T5 construct: purchased Invitrogen
T5 sequence (P50750 whole entry): as the sequence (P50750 whole entry) above
Description: (§6) 2. Measurement of half maximal inhibitory concentration to CDKs This protocol describes how the Lance Ultra KinaSelect Assay was performed to determine half maximal inhibitory concentration (1050) of compounds of general formula (I) and CDK/Cyclin complexes. The principle behind this enzymatic assay is based upon the phosphorylation of the ULight-Peptide Substrat. It is detected by using a specific
(§7) EU-labeled anti-phospho peptide antibody. The binding of the Eu-labeled anti-phospho peptide antibody to the phosphorylated ULight labeled peptide gives rise to a FRET-signal. Binding of an inhibitor to the kinase prevents phosphorylation of the ULight-MBP Substrat, resulting in a loss of FRET.
(§8) The compounds of general formula (I) summarized in Table 5 were diluted from a 10 mM DMSO stock solution 1:10 in a total volume of 15 μL DMSO. This compound predilution was then serial diluted 1:3 over 8 steps in DMSO and briefly spun down. Each compound solution was now diluted 1:20 in Enzymatic Buffer (HEPES: 50 mM, pH: 7.5; MgCl2: 10 mM; EGTA: 1 mM; DTT: 2 mM; Tween-20: 0.01%), mixed thoroughly and spun down. For every sample, 2 μL of the diluted compound were mixed with 6 μL CDK/Cyclin/Substrat solution and 2 μL ATP solution in a well of a small volume 384 well plate (Corning Incorporated, Corning, N.Y., USA; order no. 3673). The CDK/Cyclin was diluted to the appropriate concentration (see Table 3) and the ATP concentration was adjusted to its […] for the CDK/Cyclin, which was 3 μM for CDK2/Cyclin A, 20 μM for CDK1/Cyclin B1, 25 μM for CDK7/Cyclin H and CDK9/Cyclin T1, 55 μM for CDK6/Cyclin D3, 90 μM for CDK4/Cyclin D1 and 125 μM for CDK9/Cyclin K. For negative controls, in each well 2 μL of DMSO solution (1% final DMSO assay concentration) was mixed with 6 μL substrate solution (50 nM ULight MBP final assay concentration) and 2 μL ATP solution (appropriate final concentration see Table 3). For positive controls, in each well 2 μL of DMSO solution (1% final DMSO assay concentration) was mixed with 6 μL CDK/Cyclin/Substrat (appropriate final concentration see Table 3) and 2 μL Tracer ATP solution (appropriate final concentration see Table 3). Positive and negative controls were calculated from at least 8 different sample wells. The 384 well plates were mixed in a Teleshaker plate mixer (Beckman Coulter, Brea, Calif., USA) at 2000 rpm for 40 sec, and incubated for 1 h at room temperature. Before reading, 10 μL the detection buffer (Lance Detection Buffer 1×; EDTA: […]; Eu-Anti-P-MBP: see Table 3) was added. The FRET signal was measured at 340 nm excitation, 665 nm and 615 nm emission (for the kinase tracer and LanthaScreen Eu-AB, respectively) with an Envision spectrophotometer (Perkin Elmer, Waltham, Mass., USA) with 50 μs delay and 300 μs integration time. IC50 values were determined from the sigmoidal dose response curves with the software Quattro Workflow (Quattro GmbH, Munich, Germany).

[8] = target: T4, CDK2/CyclinA; experiment: Lance Ultra KinaSelect Assay, CDK2; format: biochemical; settings: ATP 3 μM; read-out: CDK2 LANCE assay (activity range), IC50
Description: as §6, §7, §8

[9] = target: T6, CDK1/CyclinB1 (Homo sapiens, UniProt P06493); experiment: Lance Ultra KinaSelect Assay, CDK1; format: biochemical; settings: ATP 20 μM; read-out: CDK1 LANCE assay (activity range), IC50
T6 construct: purchased Carna
T6 sequence (P06493 whole entry): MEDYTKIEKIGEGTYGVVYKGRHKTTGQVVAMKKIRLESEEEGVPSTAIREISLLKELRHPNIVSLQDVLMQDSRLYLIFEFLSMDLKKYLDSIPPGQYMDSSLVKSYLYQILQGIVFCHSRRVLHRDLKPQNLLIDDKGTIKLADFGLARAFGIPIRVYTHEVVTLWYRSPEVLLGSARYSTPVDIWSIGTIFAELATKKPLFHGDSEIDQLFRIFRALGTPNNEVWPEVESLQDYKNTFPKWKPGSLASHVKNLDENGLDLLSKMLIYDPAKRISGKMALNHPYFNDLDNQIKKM
T6 sequence (P14635 whole entry partner): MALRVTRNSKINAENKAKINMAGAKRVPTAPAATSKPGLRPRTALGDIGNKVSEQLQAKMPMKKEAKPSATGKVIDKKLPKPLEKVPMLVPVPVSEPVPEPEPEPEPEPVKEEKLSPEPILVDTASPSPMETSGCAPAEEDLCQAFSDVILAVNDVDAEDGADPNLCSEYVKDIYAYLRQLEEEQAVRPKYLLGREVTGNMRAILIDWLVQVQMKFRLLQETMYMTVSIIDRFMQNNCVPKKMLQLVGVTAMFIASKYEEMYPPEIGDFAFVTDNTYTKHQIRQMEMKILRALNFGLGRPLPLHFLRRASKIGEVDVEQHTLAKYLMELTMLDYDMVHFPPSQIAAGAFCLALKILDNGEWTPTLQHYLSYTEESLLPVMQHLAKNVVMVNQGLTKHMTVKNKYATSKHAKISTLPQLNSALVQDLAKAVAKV
Description: as §6, §7, §8

[10] = target: T7, CDK6/CyclinD3 (Homo sapiens, UniProt Q00534); experiment: Lance Ultra KinaSelect Assay, CDK6; format: biochemical; settings: ATP 55 μM; read-out: CDK6 LANCE assay (activity range), IC50
T7 construct: purchased Carna
T7 sequence (Q00534 whole entry): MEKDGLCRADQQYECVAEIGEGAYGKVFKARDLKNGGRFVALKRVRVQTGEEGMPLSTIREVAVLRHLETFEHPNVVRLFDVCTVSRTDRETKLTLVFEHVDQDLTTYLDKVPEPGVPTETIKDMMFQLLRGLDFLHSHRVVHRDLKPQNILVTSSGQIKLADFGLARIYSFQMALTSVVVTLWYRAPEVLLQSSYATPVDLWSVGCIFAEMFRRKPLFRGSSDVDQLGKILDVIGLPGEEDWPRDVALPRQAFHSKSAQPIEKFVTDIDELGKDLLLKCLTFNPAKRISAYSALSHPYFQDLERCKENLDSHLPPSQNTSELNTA
T7 sequence (P30281 whole entry partner): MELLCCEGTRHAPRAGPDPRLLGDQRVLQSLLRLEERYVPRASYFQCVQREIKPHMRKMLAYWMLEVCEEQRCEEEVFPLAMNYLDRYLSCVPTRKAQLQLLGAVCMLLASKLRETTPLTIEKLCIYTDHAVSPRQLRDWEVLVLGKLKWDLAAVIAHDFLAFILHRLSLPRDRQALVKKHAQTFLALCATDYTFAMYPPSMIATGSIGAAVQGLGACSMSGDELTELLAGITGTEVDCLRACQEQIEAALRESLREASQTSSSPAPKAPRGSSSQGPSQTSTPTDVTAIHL
Description: as §6, §7, §8

[11] = target: T1, CDK7/CyclinH/MAT1; experiment: Lance Ultra KinaSelect Assay, CDK7; format: biochemical; settings: ATP 25 μM; read-out: CDK7 LANCE assay (activity range), IC50
Description: as §6, §7, §8

[12] = target: T8, CDK4/CyclinD1 (Homo sapiens, UniProt P11802); experiment: Lance Ultra KinaSelect Assay, CDK4; format: biochemical; settings: ATP 90 μM; read-out: CDK4 LANCE assay (activity range), IC50
T8 construct: purchased Invitrogen
T8 sequence (P11802 whole entry): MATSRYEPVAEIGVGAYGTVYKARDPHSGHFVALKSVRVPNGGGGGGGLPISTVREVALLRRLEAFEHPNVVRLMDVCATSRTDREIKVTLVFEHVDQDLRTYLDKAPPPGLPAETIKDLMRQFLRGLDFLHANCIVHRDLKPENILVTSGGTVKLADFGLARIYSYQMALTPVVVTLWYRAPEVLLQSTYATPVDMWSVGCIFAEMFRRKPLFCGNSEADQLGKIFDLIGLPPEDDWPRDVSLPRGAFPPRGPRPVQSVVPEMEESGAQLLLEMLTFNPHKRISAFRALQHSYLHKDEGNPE
T8 sequence (P24385 whole entry partner): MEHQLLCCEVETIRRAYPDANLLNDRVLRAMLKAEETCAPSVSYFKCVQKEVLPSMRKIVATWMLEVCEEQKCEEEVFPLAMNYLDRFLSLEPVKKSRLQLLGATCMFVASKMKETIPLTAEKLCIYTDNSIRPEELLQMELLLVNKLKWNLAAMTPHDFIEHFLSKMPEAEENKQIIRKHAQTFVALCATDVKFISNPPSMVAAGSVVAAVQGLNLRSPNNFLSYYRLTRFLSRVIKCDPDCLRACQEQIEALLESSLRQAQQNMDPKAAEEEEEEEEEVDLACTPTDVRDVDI
Description: as §6, §7, §8

[13] = tested on: NF-kappaB reporter gene activation; experiment: NF-kappaB Reporter Assay; format: cell-based; settings: Homo sapiens; HEK293 cells, pNFkBluc reporter, 20 ng/ml TNF alpha, 5 h; read-out: NF-kappaB activation (activity range), IC50
Description: 3.2 NF-kappaB Reporter Assay
Cells were maintained in RPMI cell culture medium+glutamine (PAN Biotech GmbH, Aidenbach, Germany) supplemented with 10% fetal calf serum (PAA Laboratories GmbH, Pasching, Austria) and grown at 37° C., 5% CO2. HEK293 cells grown to 50% confluence were transfected with the Amaxa® Cell Line Nucleofector® Kit V (Lonza, Basel, Switzerland, catalog #VCA-1003). Transfections were performed according to manufacturer's optimized protocol for transfection of HEK293 cells. In brief, 2×10^5 cells were transfected with 5 μg highly purified plasmid DNA. Cells were transfected with a NF-kappa B reporter plasmid (pNFkBluc), pTALluc for control, or pMAXGFP for transfection control. After transfection, cells were taken up in 500 μL RPMI1640 cell culture medium, incubated for 1 h at 37° C., and 4.5 ml DMEM without phenol red were added per transfection. Transfected cells were seeded in 96 well plates (Greiner Bio-One, Frickenhausen, Germany, catalog #655098) with 100 μL cell suspension per well and incubated for 48 h. To each well, 100 μL DMEM with 2× concentrated compound diluted from 10 mM DMSO stocks, or 100 μL DMEM with 0.4% DMSO for control wells, was added. The compounds of general formula (I) summarized in Table 6 were used in this assay. Cells were stimulated with 20 ng/ml TNF alpha, and plates were incubated for 5 h at 37° C./5% CO2. Cell culture supernatants were removed to leave 100 μl medium per well, followed by addition of 100 μl Bright Glo luciferase assay reagent (Promega, Madison, Wis., USA, catalog #E2620), and shaking for 5 minutes in the dark. Luminescence was measured with a Victor Photospectrometer (Perkin Elmer, Waltham, Mass., USA). IC50 values were calculated with the software Excel Fit (IDBS, Guildford, UK) from 2-fold dilution series comprising at least 10 concentrations in duplicates.

T1 sequence (P50613 whole entry): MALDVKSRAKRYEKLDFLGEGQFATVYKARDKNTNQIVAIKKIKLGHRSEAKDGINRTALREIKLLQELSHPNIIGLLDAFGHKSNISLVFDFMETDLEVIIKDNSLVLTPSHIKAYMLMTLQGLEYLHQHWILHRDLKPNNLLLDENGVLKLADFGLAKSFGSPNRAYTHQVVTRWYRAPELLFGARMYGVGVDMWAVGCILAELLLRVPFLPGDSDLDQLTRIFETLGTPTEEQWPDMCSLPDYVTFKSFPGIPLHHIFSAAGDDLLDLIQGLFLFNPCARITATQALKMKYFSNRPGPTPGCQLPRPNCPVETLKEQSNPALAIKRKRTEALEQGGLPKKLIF
T1 sequence (P51946 whole entry partner): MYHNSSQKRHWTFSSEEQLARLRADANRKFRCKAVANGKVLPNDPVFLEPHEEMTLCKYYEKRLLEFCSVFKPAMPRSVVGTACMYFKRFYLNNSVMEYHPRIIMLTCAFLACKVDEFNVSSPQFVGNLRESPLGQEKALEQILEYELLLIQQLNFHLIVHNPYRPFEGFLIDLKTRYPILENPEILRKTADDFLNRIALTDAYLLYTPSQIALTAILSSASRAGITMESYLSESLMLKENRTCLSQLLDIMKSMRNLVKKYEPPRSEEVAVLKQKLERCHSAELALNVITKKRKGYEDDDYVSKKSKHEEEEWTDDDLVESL
T1 sequence (P51948 whole entry partner): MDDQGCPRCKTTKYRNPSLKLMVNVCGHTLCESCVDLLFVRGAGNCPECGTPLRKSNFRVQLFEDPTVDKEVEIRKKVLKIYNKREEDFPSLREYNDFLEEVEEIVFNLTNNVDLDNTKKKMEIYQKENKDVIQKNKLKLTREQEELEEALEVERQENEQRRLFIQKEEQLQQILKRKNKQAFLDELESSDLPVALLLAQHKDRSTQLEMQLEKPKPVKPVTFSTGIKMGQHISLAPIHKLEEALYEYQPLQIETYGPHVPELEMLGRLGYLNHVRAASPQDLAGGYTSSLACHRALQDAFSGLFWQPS

Kd [1] [µM]	Kd [2] [µM]	IC50 [3] [µM]	Kd [4] [µM]	IC50 [5] [µM]	Kd [6] [µM]	IC50 [7] [µM]	IC50 [8] [µM]	IC50 [9] [µM]	IC50 [10] [µM]	IC50 [11] [µM]	IC50 [12] [µM]	IC50 [13] [µM]	Structure (SMILES)
> 10	< 0.1	> 10	< 0.1	1 to 10	1 to 10	–	–	–	–	–	–	–	NS(=O)(=O)Cc1cccc(Nc2ncnc(N3CCC[C@@H]3c3ccccc3)n2)c1 [Compound B34, (R)-3-[(4-(2-Phenylpyrrolidin-1-yl)-1,3,5-triazin-2-yl)amino]-benzenemethanesulfonamide]
–	1 to 10	–	1 to 10	–	–	1 to 10	> 10	> 10	> 10	> 10	> 10	–	CN(C)CCC1CCCCN1c1ncnc(Nc2cccc(CS(N)(=O)=O)c2)n1 (racemic) [Compound B8, rac-3-[(4-(2-(2-(Dimethylamino)ethyl)piperidin-1-yl)-1,3,5-triazin-2-yl)amino]benzenemethanesulfonamide]
> 10	0.1 to 1	–	0.1 to 1	–	> 10	–	–	–	–	–	–	> 10	NS(=O)(=O)Cc1cccc(Nc2ncnc(N3CCC[C@@H]3COCc3ccccc3)n2)c1 [Compound B30, (R)-3-[(4-(2-(Benzyloxymethyl)pyrrolidin-1-yl)-1,3,5-triazin-2-yl)amino]benzenemethanesulfonamide]
> 10	< 0.1	> 10	< 0.1	> 10	0.1 to 1	–	–	–	–	–	–	–	NS(=O)(=O)Cc1cccc(Nc2ncnc(N3Cc4ccncc4C3)n2)c1 [Compound B49, 3-[(4-(1H-Pyrrolo[3,4-c]pyridin-2(3H)-yl)-1,3,5-triazin-2-yl)amino]-benzenemethanesulfonamide]
